pIC50: −log10 of the molar value.
Test system: Human Jurkat T-cells (clone N)
Experiment: Jurkat T-cell activation (anti-TCR, CD69 upregulation)
Assay type: cell-based
Conditions: not given
Procedure, shortened: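 Readout is CD69 upregulation by flow cytometry (anti-CD69-APC, 20 min at 4 °C) after 20 h anti-TCR (C305, 500 ng/ml) stimulation at 37 °C.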

Row | Structure (SMILES) | pIC50
1 | CNC(=O)COc1cccc(Nc2ncc(F)c(Nc3cccc(N(CCO)CCO)c3)n2)c1 [Compound R950266] | 5.44
2 | COC(=O)c1cc2cc(Nc3nc(Nc4ccc(OCc5nc(-c6ccccc6)no5)cc4)ncc3F)ccc2o1 [Compound R935137] | 4.62
3 | O=C(NCCO)c1cc2cc(Nc3ncc(F)c(Nc4ccc5oc(C(=O)NCCO)cc5c4)n3)ccc2o1 [Compound R950167] | < 5.00
4 | Fc1cnc(Nc2ccc(OCc3nn[nH]n3)cc2)nc1Nc1ccc(OCc2nn[nH]n2)cc1 [Compound R945033] | < 5.00
5 | Oc1cccc(Nc2nc(NC3CCN(Cc4ccccc4)CC3)ncc2F)c1 [Compound R940264] | < 5.00
6 | O=C(COc1ccc(Nc2nc(Nc3cccc(O)c3)ncc2Br)cc1)NCC1CC1 [Compound R925842] | < 5.00
7 | CCOC(=O)CNc1cccc(Nc2ncc(F)c(Nc3cccc(NCCO)c3)n2)c1 [Compound R950229] | 5.42
8 | N#Cc1cnc(Nc2ccc(OCC(=O)N3CCCCC3)cc2)nc1Nc1ccc(OCC(=O)N2CCCCC2)cc1 [Compound R925855] | < 5.00
9 | CCOC(=O)CNc1nc(Nc2ccc(OCC(=O)OCC)cc2)nc(C(=O)OCC)c1[N+](=O)[O-] [Compound R925858] | < 5.00
10 | COc1cc(C(=O)NS(=O)(=O)c2ccccc2C)ccc1Cn1ncc2cc(Nc3ncc(F)c(Nc4cccc(O)c4)n3)ccc21 [Compound R935340] | < 5.00
11 | CC(=O)Nc1cccc(N(C(C)=O)c2ncc(F)c(N(C(C)=O)c3cccc(N(C(C)=O)C(C)=O)c3)n2)c1 [Compound R950245] | < 5.00
12 | CNC(=O)COc1cccc(Nc2ncc(F)c(Nc3ccc(OC)c(CN4CCOCC4)c3)n2)c1 [Compound R940314] | 5.15
13 | CNC(=O)COc1cccc(Nc2ncc(F)c(Nc3cccc(-c4nn[nH]n4)c3)n2)c1 [Compound R926855] | < 5.00
14 | CNC(=O)COc1cccc(Nc2ncc(F)c(Nc3cccc(Cl)c3)n2)c1 [Compound R926832] | 5.52
15 | COC(=O)COc1cccc(Nc2ncc(F)c(Nc3cc(C)c(OC)c(C)c3)n2)c1 [Compound R945153] | 5.01
16 | CNC(=O)COc1ccc(Nc2ncc(F)c(Nc3ccc(C(C)(C)C)cc3)n2)cc1 [Compound R926712] | 5.20
17 | COc1ccc(Nc2nc(Nc3cc(C)c(O)c(Cl)c3)ncc2F)cc1CN1CCOCC1 [Compound R940316] | 5.37
18 | CNC(=O)COc1cccc(Nc2nc(Nc3cccc(O)c3)ncc2C(F)(F)F)c1 [Compound R926741] | 5.34
19 | C[C@H](Nc1ncc(F)c(N[C@@H](C)[C@H](O)c2ccccc2)n1)[C@H](O)c1ccccc1 [Compound R925767] | < 5.00
20 | CNC(=O)COc1cccc(Nc2ncc(F)c(Nc3ccc(OC)c(CN(C)C)c3)n2)c1 [Compound R940321] | 5.43
21 | Cc1ccc(-c2ccccc2)cc1Nc1ncc(C)c(Nc2cc(-c3ccccc3)ccc2C)n1 [Compound R935001] | < 5.00
22 | CC(C)(C)c1cccc(Nc2nc(Nc3cccc(OCC(=O)NCC(O)CO)c3)ncc2F)c1 (stereo not shown) [Compound R940277] | 5.91
23 | COC(=O)C(C)Oc1ccc(Nc2ncc(F)c(Nc3ccc(OC(C)C(=O)OC)cc3)n2)cc1 (mixture of isomers) [Compound R926254] | < 5.00
24 | CCOC(=O)c1cnc(Nc2ccc3c(c2)NC(=O)CO3)nc1Nc1ccc2c(c1)NC(=O)CO2 [Compound R926325] | < 5.00

Continued, values first:

Row | pIC50 | Structure (SMILES)
25 | 5.53 | O=C1CN=C2COc3ccc(Nc4nc(Nc5cccc(O)c5)ncc4F)cc3N12 [Compound R945236]
26 | < 5.00 | Cc1noc(COc2ccc(Nc3ncc(F)c(Nc4cccc(O)c4)n3)cc2)n1 [Compound R935141]
27 | 5.21 | CC(C)(C)c1cccc(Nc2nc(Nc3ccc4oc(CO)cc4c3)ncc2F)c1 [Compound R940287]
28 | 5.42 | Cc1noc(COc2ccc(Nc3ncc(F)c(Nc4ccc5c(c4)OCCO5)n3)cc2)n1 [Compound R935143]
29 | 5.52 | OCC(O)COc1ccc(Nc2ncc(F)c(Nc3ccc4c(c3)OCCO4)n2)cc1 (stereo not shown) [Compound R935179]
30 | 4.93 | NC(=O)Cn1c(=O)oc2ccc(Nc3ncc(F)c(Nc4ccc5c(c4)OCCO5)n3)cc21 [Compound R926847]
31 | < 5.00 | OB(O)c1cccc(Nc2ncc(F)c(Nc3ccc4c(c3)OCCO4)n2)c1 [Compound R926837]
32 | 5.46 | CNC(=O)COc1cccc(Nc2ncc(F)c(Nc3ccc4c(c3)C=CCC4)n2)c1 [Compound R926944]
33 | < 5.00 | CNC(=O)COc1cccc(Nc2ncc(F)c(Nc3ccc4ncccc4c3)n2)c1 [Compound R926883]
34 | 4.70 | FC(F)(F)c1cnc(Nc2ccc3c(c2)OCCO3)nc1Nc1ccc2c(c1)OCCO2 [Compound R920669]
35 | 5.74 | CNC(=O)CCn1ncc2cc(Nc3ncc(F)c(Nc4cccc(O)c4)n3)ccc21 [Compound R935305]
36 | 5.48 | NC(=O)COc1cccc(Nc2ncc(F)c(Nc3ccc4c(c3)OCCO4)n2)c1 [Compound R926747]
37 | 5.73 | Oc1cccc(Nc2nc(Nc3ccc(OCCN4CCOCC4)cc3)ncc2F)c1 [Compound R926699]
38 | < 5.00 | CCOC(=O)COc1cccc(Nc2ncc(F)c(Nc3ccc4c(c3)C(=O)OC4)n2)c1 [Compound R940285]
39 | 5.91 | O=C(COc1cccc(Nc2ncc(F)c(Nc3ccc4c(c3)OCCO4)n2)c1)NCC(O)CO (stereo not shown) [Compound R926782]
40 | < 5.00 | COC(=O)c1cc2cc(Nc3ncc(F)c(Nc4ccc(OCc5nc(C)no5)cc4)n3)ccc2o1 [Compound R935146]
41 | 5.74 | Fc1cnc(Nc2ccc3cn[nH]c3c2)nc1Nc1ccc2cn[nH]c2c1 [Compound R935188]
42 | 6.65 | CNC(=O)COc1cccc(Nc2ncc(F)c(Nc3ccc4c(c3)C(=NO)CCO4)n2)c1 [Compound R950348]
43 | < 5.00 | Cc1noc(COc2cccc(Nc3nc(Nc4cccc(O)c4)ncc3F)c2)n1 [Compound R945130]
44 | 5.23 | CNC(=O)COc1cccc(Nc2ncc(F)c(Nc3ccc4c(c3)OCCN4C)n2)c1 [Compound R908705]
45 | < 5.00 | CSc1nc(Nc2ccc3c(c2)OCCO3)nc(Nc2ccc3c(c2)OCCO3)c1Cl [Compound R926475]
46 | 5.55 | Oc1cccc(Nc2nc(Nc3ccc4oc(CN5CCNCC5)cc4c3)ncc2F)c1 [Compound R926769]

Same assay, conditions: Homo sapiens

Row | Structure (SMILES) | pIC50
47 | O=[N+]([O-])c1cc(Nc2ccnc(Nc3ccc(Cl)c([N+](=O)[O-])c3)n2)ccc1Cl [Compound R950154] | < 5.00

Same assay, conditions: Homo sapiens, Jurkat

Row | Structure (SMILES) | pIC50
48 | Cc1c(O)ccc(Nc2ncc(F)c(Nc3ccc(O)c(C)c3C)n2)c1C [Compound R940217] | < 5.00
49 | CCOC(=O)c1cnc(Nc2ccc(CC#N)cc2)nc1Nc1ccc(CC#N)cc1 [Compound R926319] | 4.81
50 | CNC(=O)c1cc(Nc2nc(NC)ncc2F)ccc1OC [Compound R940304] | < 5.00
51 | COC(=O)Cc1ccc(Nc2ncc(F)c(Nc3ccc(CC(=O)OC)cc3)n2)cc1 [Compound R926605] | < 5.00
52 | CCOc1ccc(Nc2ncc(C)c(Nc3ccc(OCC)cc3)n2)cc1 [Compound R926068] | 4.94
53 | O=C(c1ccccc1)c1cccc(Nc2ncc(F)c(Nc3cccc(C(=O)c4ccccc4)c3)n2)c1 [Compound R950377] | 5.22
54 | COc1ccc(Nc2nc(NCCN3CCN(Cc4ccccc4)CC3)ncc2F)cc1OC [Compound R940262] | 5.19
55 | COC(=O)C(CC(C)C)Nc1ncc(C#N)c(NC(CC(C)C)C(=O)OC)n1 (stereo not shown) [Compound R925815] | < 5.00
56 | Cc1cc(Nc2ncc(F)c(Nc3cccc(C(C)(C)C)c3)n2)cc(Cl)c1O [Compound R940271] | < 5.00
57 | Oc1cccc(Nc2nc(NCc3ccccn3)ncc2F)c1 [Compound R945166] | < 5.00
58 | CC(C)Nc1cccc(Nc2ncc(F)c(Nc3cccc(NC(C)C)c3)n2)c1 [Compound R950166] | < 5.00
59 | Oc1c(Cl)cc(Nc2ncc(F)c(Nc3cc(Cl)c(O)c(Cl)c3)n2)cc1Cl [Compound R940215] | < 5.00
60 | CC(C)(CO)c1ccc(Nc2nc(Nc3ccc(OCCO)cc3)ncc2F)cc1 [Compound R935158] | 5.61
61 | CCOc1ccc(Nc2ncc(F)c(Nc3ccc(OCC)cc3)n2)cc1 [Compound R070790, N2,N4-bis(4-ethoxyphenyl)-5-fluoro-2,4-pyrimidinediamine] | < 5.00
62 | Fc1cnc(Nc2cccc(-c3ccccc3)c2)nc1Nc1cccc(-c2ccccc2)c1 [Compound R926403] | < 5.00
63 | COc1ccc(-c2ccccc2)cc1Nc1ncc(C)c(Nc2cc(-c3ccccc3)ccc2OC)n1 [Compound R935000] | < 5.00
64 | CC(C)(C)OC(=O)Nc1ccc(Nc2ncc(F)c(Nc3ccc(NC(=O)OC(C)(C)C)cc3)n2)cc1 [Compound R950120] | 4.92

Further lines, results first:

Row | pIC50 | Structure (SMILES)
65 | < 5.00 | OCCOc1ccc(Nc2ncc(F)c(Nc3cccc(O)c3)n2)cc1 [Compound R926376]
66 | < 5.00 | Oc1cccc(Nc2nc(Nc3ccc(-n4cnc(Cl)c4Cl)cc3)ncc2F)c1 [Compound R926777]
67 | 4.75 | c1cc2c(cc1Nc1cc(Nc3ccc4c(c3)OCCO4)nc(Nc3ccc4c(c3)OCCO4)n1)OCCO2 [Compound R926516]
68 | 5.25 | Oc1cccc(Nc2nc(Nc3ccc4cc[nH]c4c3)ncc2F)c1 [Compound R926751]
69 | 5.50 | CC(C)(CO)c1ccc(Nc2nc(Nc3cccc(OCCO)c3)ncc2F)cc1 [Compound R935161]
70 | < 5.00 | Fc1ccc(Nc2ncc(F)c(Nc3ccc(F)cc3)n2)cc1 [Compound R926224]
71 | 5.12 | Oc1ccc(Nc2ncc(F)c(Nc3ccc(O)cc3)n2)cc1 [Compound R926405]
72 | 5.52 | OCCOc1cccc(Nc2ncc(F)c(Nc3ccc4oc(CO)cc4c3)n2)c1 [Compound R935178]
73 | < 5.00 | O=C(O)c1cc(Nc2ncc(F)c(Nc3ccc(O)c(C(=O)O)c3)n2)ccc1O [Compound R945041]
74 | 5.56 | CNC(=O)c1cc2cc(Nc3nc(Nc4ccc5c(c4)OCCO5)ncc3F)ccc2o1 [Compound R926491]
75 | < 5.00 | Oc1cccc(Nc2nc(Nc3ccc4c(c3)CCO4)ncc2F)c1 [Compound R909250]
76 | 6.27 | Fc1cnc(Nc2ccc3cc[nH]c3c2)nc1Nc1ccc2c(c1)OCCO2 [Compound R926750]
